Test results published in US20060121117A1, “Anti-angiogenic compositions and methods of use” (ANGIOTECH PHARMACEUTICALS, INC., priority 1993, published 2006).

Assays:
[1] = MTX release from PCL paste; assay type: physicochemical; conditions: high MePEG concentrations (20% MePEG in PCL)
Method: A known weight of a polymer (typically a 2.5 mg pellet) is added to a 15 ml test tube containing 14 ml of a buffer containing 10 mm Na2HPO4—NaH2PO4, 0.145 m NaCl and 0.4 g/l bovine serum albumin. The tubes are capped and tumbled at 37° C. At specific times all the 14 ml of the liquid buffer are removed and replaced with fresh liquid buffer.
For MTX the collected buffer is applied directly to the HPLC column with no need for extraction in methylene chloride. MTX is analyzed at 302 nm. For Vanadium containing compounds the liquid buffer is analyzed directly using a UV/VIS spectrometer in the 200 to 300 nm range.
Methotrexate (“MTX”; Sigma Chemical Co.) is ground in a pestle and mortar to reduce the particle size to below 5 microns. It is then mixed as a dry powder with polycaprolactone (molecular wt 18000 Birmingham Polymers, Alabama USA). The mixture is heated to 65° C. for 5 minutes and the molten polymer/methotrexate mixture is stirred into a smooth paste for 5 minutes. The molten paste is then taken into a 1 mL syringe, and extruded as desired.

[2] = tested on: neutrophils; test: Neutrophil superoxide anion generation; assay type: cell-based, human; conditions: paclitaxel at 28 μM
Method: (§1) Opsonization of crystals or zymosan was done with 50% heparinized plasma at a concentration of 75 mg of CPPD or 12 mg of zymosan per ml of 50% plasma. Crystals or zymosan were incubated with plasma for 30 min. at 37° C. and then washed in excess HBSS.
Superoxide anion concentrations were measured using the superoxide dismutase inhibitable reduction of cytochrome c assay. Briefly, 25 mg of crystals or 0.5 mg of zymosan was placed in a 1.5 ml capped Eppendorf tube and warmed to 37° C. 0.5 ml of cells at 370 C were added together with ferricytochrome c (final concentration 1.2 mg/ml) and the cells were activated by shaking the capped tubes. […] Control tubes were set up under the same conditions with the inclusion of superoxide dismutase at 600 units per ml.

[3] = tested on: normal chondrocytes; test: Chondrocyte viability (Trypan blue counting); assay type: cell-based; conditions: up to 10^−5 M, 72 hours
[4] = tested on: neutrophils; test: Neutrophil viability (LDH release); conditions: paclitaxel at 46 μM for one hour at 37° C.
Method: Neutrophils were prepared from freshly collected human citrated whole blood. Briefly, 400 ml of blood were mixed with 80 ml of 4% dextran T500 (Phamacia LKB, Biotechnology AB Uppsala, Sweden) in HBSS and allowed to settle for 1 h. Plasma was collected continuously and 5 ml applied to 5 ml of Ficoll Paque (Pharmacia) in 15 ml polypropylene tubes (Corning, N.Y.). Following centrifugation at 500×g for 30 min, the neutrophil pellets were washed free of erythrocytes by 20 s of hypotonic shock. Neutrophils were resuspended in HBSS, kept on ice and used for experiments within 3 h. Neutrophil viability and purity was always greater than 90%.
Cells were incubated for 20 minutes at 33° C. then for 10 minutes at 37° C. before addition to crystals or zymosan.
Control tubes containing cells with drug (crystals absent) from degranulation experiments were also assayed for LDH.

[5] = tested on: collagenase mRNA; test: IL-1 induced collagenase expression in chondrocytes (Northern blot); assay type: cell-based, bovine; conditions: 10^−6 M, 2 hours prior to IL-1 (20 ng/ml), further 16 hours
Method: The cells were then incubated for a further 16 hours. Total RNA from bovine articular chondrocytes was isolated by the acidified guanidine isothiocyanate method and the collagenase mRNA determined by Northern blot analysis. The RNA samples were prepared as described above using ^32P-labeled rat collagenase cDNA.

[6] = tested on: c-fos mRNA; test: c-fos expression in chondrocytes (Northern blot); assay type: cell-based, bovine; conditions: 10^−6 M, 10^−7 M and 10^−8 M for 2 hours, then TNF 30 ng/ml for 1 hour
Method: Total RNA from bovine articular chondrocytes was isolated by the acidified guanidine isothiocyanate method and the levels of c-fos mRNA determined by Northern blot analysis. Denatured RNA samples (12 μg) were analyzed by gel electrophoresis in a denaturing 1% agarose gel, transferred to a nylon membrane (Bio-Rad), cross-linked with an ultraviolet cross-linker (Stratagene UV stratalinker 1800), and hybridized with ^32P-labeled rat c-fos DNA. mRNA for tubulin and total RNA were used as controls. To determine tubulin mRNA, the blots described above were subsequently stripped of DNA and re-probed with ^32P-labeled rat P-tubulin cDNA. This experimented was conducted three times and the data collated.

[7] = tested on: synovial fibroblasts; test: Synoviocyte proliferation (Trypan blue counting); conditions: 24 hours
[8] = tested on: neutrophils; test: Neutrophil chemiluminescence assay; assay type: cell-based; conditions: Homo sapiens, paclitaxel at 28 μM, read-out: inhibition of the peak chemiluminescence response
Method: as §1
All chemiluminescence studies were performed at a cell concentration of 5,000,000 cells/ml in HBSS with CPPD (50 mg/ml). In all experiments 0.5 ml of cells was added to 25 mg of CPPD or 0.5 mg of zymosan in 1.5 ml capped Eppendorf tubes. 10 μl of luminol dissolved in 25% DMSO in HBSS was added to a final concentration of 1 μM and the samples were mixed to initiate neutrophil activation by the crystals or zymosan. Chemiluminescence was monitored using an LKB Luminometer (Model 1250.) at 37° C. with shaking immediately prior to measurements to resuspend the crystals or zymosan. Control tubes contained cells, drug and luminol (crystals absent).

[9] = Release from 50:50 ELVAX:poly-l-lactic acid microspheres; assay type: physicochemical; conditions: 18 hours of tumbling at 37° C.
Method: Microspheres are then prepared in a dissolution machine (Six-spindle dissolution tester, VanderKanp, Van Kell Industries Inc., U.S.A.) in triplicate at 200 rpm, 42° C., for 3 hours. Microspheres so prepared are washed twice in water and sized on the microscope.

[10] = tested on: neutrophils; test: Neutrophil degranulation assay (myeloperoxidase, lysozyme)
[11] = tested on: synoviocytes; test: 3H-thymidine incorporation into synoviocytes; assay type: cell-based; conditions: 6 or 24 hours incubation
Method: At these times, 1×10^−6 cpm of ^3H-thymidine was added to the cell culture and incubated for 2 hours at 37° C. The cells were placed through a cell harvester, washed through a filter, the filters were cut, and the amount of radiation contained in the filter sections determined. Once the amount of thymidine incorporated into the cells was ascertained, it was used to determine the rate of cell proliferation. This experiment was repeated three times and the data collated together.

[12] = tested on: chick chorioallantoic membrane (CAM); test: Chick chorioallantoic membrane (CAM) assay, agent in methylcellulose disks; conditions: for Embryos Evaluated positive/total: 48 hours
[13] = Vanadyl sulfate release from PCL paste; assay type: physicochemical
Method: Drug release was determined essentially as described above in Example 33, except that a 65 mg pellet of a 10% w/w VOSO4:PCL was suspended in 10 ml of water and the supernatant analyzed for released Vanadyl Sulphate using UV/Vis absorbance spectroscopy of the peak in the 200 to 300 nm range.

CN(Cc1cnc2nc(N)nc(N)c2n1)c1ccc(C(=O)N[C@@H](CCC(=O)O)C(=O)O)cc1 [MTX, Methotrexate]
amount of MTX released from the polymer [1]: substantial amounts

CC(=O)O[C@H]1C(=O)[C@@]2(C)[C@H]([C@H](OC(=O)c3ccccc3)[C@]3(O)C[C@H](OC(=O)[C@H](O)[C@@H](NC(=O)c4ccccc4)c4ccccc4)C(C)=C1C3(C)C)[C@]1(OC(C)=O)CO[C@@H]1C[C@@H]2O [Paclitaxel]
effect on superoxide anion production ([2]; opsonised zymosan): less dramatic than the inhibition of CPPD activation but was significant at all times
effect on superoxide anion production ([2]; plasma opsonised CPPD crystals): decrease in the amount of superoxide generated at all times
effect on viability of normal chondrocytes [3]: does not affect the viability
LDH release [4]: less than 5 % of total
effect on IL-1 induced collagenase expression [5]: completely inhibited
effect on c-fos expression [6]: does not alter c-fos expression
toxicity to synovial fibroblasts in vitro ([7]; 10^−6 M and 10^−5 M): toxic
lowest concentration inhibiting proliferation of the synoviocytes [7]: 10^−7 M
inhibition at 28 µM ([8]; plasma opsonised zymosan): 45%
inhibition at 28 µM ([8]; plasma opsonized CPPD): 52%
% of the total drug released from the microspheres (fluorescence assay) [9]: 6%
% of the total drug released from the microspheres (uv/vis assay) [9]: 10.3%
inhibition at 28 µM ([10]; Homo sapiens, Neutrophil, […], read-out: inhibition of MPO release): 50%
effect on lysozyme release ([10]; paclitaxel at 28 μM, plasma opsonized CPPD): reduced lysozyme release
effect on myeloperoxidase release ([10]; plasma opsonized CPPD, paclitaxel 28 μM (FIG. 32A)): significantly inhibited
lowest concentration inhibiting incorporation of 3H-thymidine [11]: 10^−8 M
Embryos Evaluated positive/total ([12]; 0.25 μg paclitaxel in methylcellulose disk): 2/11
Embryos Evaluated positive/total ([12]; 0.5 μg paclitaxel in methylcellulose disk): 6/11
Embryos Evaluated positive/total ([12]; 1 μg paclitaxel in methylcellulose disk): 6/15
Embryos Evaluated positive/total ([12]; 5 μg paclitaxel in methylcellulose disk): 20/27
Embryos Evaluated positive/total ([12]; 10 μg paclitaxel in methylcellulose disk): 16/21
Embryos Evaluated positive/total ([12]; 30 μg paclitaxel in methylcellulose disk): 31/31
time for which avascular zones did not revascularize after application ([12]; in one study): at least 7 days
earliest time at which inhibition of angiogenesis occurs after application ([12]; observed over the 48 hour duration): 9 h
avascular zone diameter ([12]; paclitaxel in methylcellulose disk, 48 hour exposure): 6 mm
avascular gradient scale (maximal avascular zone) ([12]; within 48 hours, depending on concentration): 3

O=S(=O)([O-])[O-].[O]=[V+2] [VOSO4, Vanadyl Sulfate]
amount of VOSO4 released ([13]; after 2 days, 65 mg pellet of 10% w/w VOSO4:PCL in 10 ml water): 3 mg
amount of VOSO4 released ([13]; by day 6, 65 mg pellet of 10% w/w VOSO4:PCL in 10 ml water): 5 mg
amount of VOSO4 released ([13]; in 6 hours, 65 mg pellet of 10% w/w VOSO4:PCL in 10 ml water): 1 mg
